Data taken from US9669034B2, “4-aryl-N-phenyl-1,3,5-triazin-2-amines containing a sulfoximine group” (BAYER INTELLECTUAL PROPERTY GMBH, priority 2011, dated 2017).
Converted amounts (≈) assume the structure as drawn. Read-outs that look alike come from different tables or passages of the source.

Key:
CDK2/CycE = CDK2/CycE (Homo sapiens (Human), UniProt P24941); assay: CDK2/CycE kinase assay (TR-FRET); type: biochemical; details: Method 2
Outline: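 TR-FRET measurement of inhibition of phosphorylation of a biotinylated peptide substrate. Enzyme complex consisted of human CDK2 and CycE, each as a GST fusion made in Sf9 cells and purified over glutathione-Sepharose.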

CDK9/CycT1 = CDK9/CycT1 (Homo sapiens (Human), UniProt P50750); assay: CDK9/CycT1 kinase assay (TR-FRET); type: biochemical; details: Method 1
Chain of CDK9/CycT1 (P50750 whole entry): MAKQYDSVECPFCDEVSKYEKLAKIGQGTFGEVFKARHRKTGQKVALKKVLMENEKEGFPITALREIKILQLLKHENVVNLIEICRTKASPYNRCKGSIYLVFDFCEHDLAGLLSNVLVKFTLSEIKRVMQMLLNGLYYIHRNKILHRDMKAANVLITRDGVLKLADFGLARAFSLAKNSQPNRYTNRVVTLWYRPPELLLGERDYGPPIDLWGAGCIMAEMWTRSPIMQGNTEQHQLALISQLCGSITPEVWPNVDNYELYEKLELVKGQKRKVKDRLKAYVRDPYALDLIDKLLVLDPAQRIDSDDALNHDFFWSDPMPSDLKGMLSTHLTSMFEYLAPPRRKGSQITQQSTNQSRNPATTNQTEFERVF
Chain of CDK9/CycT1 (O60563 whole entry partner): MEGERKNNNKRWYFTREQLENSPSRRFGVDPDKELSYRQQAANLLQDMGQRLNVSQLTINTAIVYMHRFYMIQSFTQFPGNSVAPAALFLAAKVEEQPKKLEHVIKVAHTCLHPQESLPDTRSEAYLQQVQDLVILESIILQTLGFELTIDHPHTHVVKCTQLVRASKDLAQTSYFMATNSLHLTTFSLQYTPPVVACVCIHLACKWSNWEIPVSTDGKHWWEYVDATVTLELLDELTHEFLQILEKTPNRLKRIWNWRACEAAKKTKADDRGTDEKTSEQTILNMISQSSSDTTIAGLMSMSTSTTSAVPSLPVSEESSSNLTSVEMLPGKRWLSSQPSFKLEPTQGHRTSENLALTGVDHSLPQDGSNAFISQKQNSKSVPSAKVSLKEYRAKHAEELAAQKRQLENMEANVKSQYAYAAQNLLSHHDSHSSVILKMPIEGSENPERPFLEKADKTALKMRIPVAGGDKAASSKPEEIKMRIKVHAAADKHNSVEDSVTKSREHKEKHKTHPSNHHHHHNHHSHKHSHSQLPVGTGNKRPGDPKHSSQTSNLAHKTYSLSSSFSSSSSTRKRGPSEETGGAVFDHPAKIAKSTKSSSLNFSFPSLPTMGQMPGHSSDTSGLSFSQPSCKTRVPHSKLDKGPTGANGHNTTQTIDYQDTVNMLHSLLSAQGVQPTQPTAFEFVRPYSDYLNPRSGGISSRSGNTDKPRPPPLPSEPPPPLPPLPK
Outline: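 TR-FRET read-out of kinase inhibition, with a biotin-Ttds-tagged peptide as substrate. Enzyme: human CDK9 and CycT1, full-length with His tags, produced in insect cells and purified on Ni-NTA.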

[1] = Equilibrium shake flask solubility assay; type: physicochemical; details: pH 6.5, equilibrium shake flask method; for solubility thermodynamic at 24 h: phosphate buffer, pH 6.5, aqueous buffer, thermodynamic from solid, water
Procedure: 4. Equilibrium Shake Flask Solubility Assay:
The thermodynamic solubility of compounds in water was determined by an equilibrium shake flask method (see for example: E. H. Kerns, L. Di: Drug-like Properties: Concepts, Structure Design and Methods, 276-286, Burlington, Mass., Academic Press, 2008). A saturated solution of the drug was prepared and the solution was mixed for 24 h to ensure that equilibrium was reached. The solution was centrifuged to remove the insoluble fraction and the concentration of the compound in solution was determined using a standard calibration curve.
To prepare the sample, 2 mg solid compound was weighed in a 4 mL glass vial. 1 mL phosphate buffer pH 6.5 was added. The suspension was stirred for 24 hrs at room temperature. The solution was centrifuged afterwards. To prepare the sample for the standard calibration, 2 mg solid sample was dissolved in 30 mL acetonitrile. After sonification the solution was diluted with water to 50 mL. Sample and standards were quantified by HPLC with UV-detection. For each sample two injection volumes (5 and 50 μl) in triplicates were made. Three injection volumes (5 μl, 10 μl and 20 μl) were made for the standard.
Chromatographic Conditions:
The areas of sample- and standard injections as well as the calculation of the solubility value (in mg/l) were determined by using HPLC software (Waters Empower 2 FR).

[2] = system: HeLa human cervical tumour cells; assay: Proliferation assay (crystal violet), HeLa; type: cell-based; details: Method 3, read-out: Inhibition of HeLa cell proliferation, IC50
Outline: (§1)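 Cells were seeded at 3000/well (NCI-H460, HeLa), 5000/well (HeLa-MaTu-ADR) or 1500/well (Caco-2) in medium with 10% FCS. After 24 h, compounds ([…], 0.5% DMSO) were added for 4 days. Crystal violet absorbance at 595 nm was normalized to a zero-point plate and untreated cells; IC50 came from a 4-parameter fit.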

[3] = system: NCI-H460, human non-small cell lung carcinoma cells; assay: Proliferation assay (crystal violet), NCI-H460; type: cell-based; details: Method 3, read-out: Inhibition of NCI-H460 cell proliferation, IC50
Outline: as §1

[4] = system: Caco-2 human colorectal carcinoma; assay: Proliferation assay (crystal violet), Caco-2; type: cell-based; details: Method 3, read-out: Inhibition of Caco-2 cell proliferation, IC50
Outline: as §1

[5] = system: HeLa-MaTu-ADR, multidrug-resistant human cervical carcinoma cells; assay: Proliferation assay (crystal violet), HeLa-MaTu-ADR; type: cell-based; details: Method 3, read-out: Inhibition of HeLa/MaTu/ADR cell proliferation, IC50
Outline: as §1

[6] = system: DU145, hormone-independent human prostate carcinoma cells; assay: Proliferation assay (crystal violet), DU145; type: cell-based; details: Method 3, read-out: Inhibition of DU145 cell proliferation, IC50
Outline: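 Proliferation of DU145 cells was measured with crystal violet. Cells were fixed with 20 μL 11% glutaric aldehyde for 15 minutes, washed, dried, stained with 100 μL 0.1% crystal violet (pH 3.0), washed again, and the dye was dissolved in 10% acetic acid. Absorbance at 595 nm was normalized to the zero-point plate and untreated cells, and IC50 came from a 4 parameter fit.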

[7] = system: B16F10 mouse melanoma cells; assay: Proliferation assay (crystal violet), B16F10; type: cell-based; details: Method 3, read-out: Inhibition of B16F10 cell proliferation, IC50
Outline: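 Proliferation was read out by crystal violet staining. Cells were fixed for 15 minutes at room temperature with 20 μL of 11% glutaric aldehyde, washed three times with water, dried, and stained with 100 μL of 0.1% crystal violet (pH 3.0). After washing and drying, the dye was dissolved in 100 μL of 10% acetic acid and absorbance measured at 595 nm. Values were normalized to the zero-point plate (0%) and untreated cells (100%), and IC50 was obtained by a 4 parameter fit.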

[8] = Homo sapiens, NCI-H460, NCI-H460 cells
[9] = Homo sapiens, Caco-2, Caco-2 cells
[10] = Homo sapiens, DU-145, DU145 cells
[11] = Mus musculus, B16-F10, B16F10 cells

IC50 (CDK2/CycE) | IC50 (CDK9/CycT1) | solubility thermodynamic at 24 h [1] | IC50 ([2]; Homo sapiens, HeLa) | IC50 [3, 8] | IC50 [4, 9] | IC50 ([5]; Homo sapiens, HeLa) | IC50 [6, 10] | IC50 [7, 11] | SMILES | further results
5.6 µM | 0.11 µM |  |  |  |  |  |  |  | COc1ccc(F)cc1-c1ncnc(Nc2cccc(CS(C)(=N)=O)c2)n1 (single isomer, unassigned) [Example 23, 4-(5-Fluoro-2-methoxyphenyl)-N-{3-[(S-methylsulfonimidoyl)methyl]phenyl}-1,3,5-triazin-2-amine] | Thermodynamic solubility in water at pH 6.5 [1]: 888 mg/l
1.6 µM |  |  |  |  |  |  |  |  | CS(=N)(=O)Cc1cccc(Nc2ncnc(-c3cccc4c3OCCC4)n2)c1 (single isomer, unassigned) [Example 32, 4-(3,4-Dihydro-2H-chromen-8-yl)-N-{3-[(S-methylsulfonimidoyl)methyl]phenyl}-1,3,5-triazin-2-amine] | Thermodynamic solubility in water at pH 6.5 [1]: 1000 mg/l
0.65 µM | 0.007 µM | 88 µg/mL (≈ 213 µM) |  |  |  |  |  |  | COc1cc(F)ccc1-c1ncnc(Nc2cccc(CS(C)(=O)=NC#N)c2)n1 (single isomer, unassigned) [Example 49, [(3-{[4-(4-fluoro-2-methoxyphenyl)-1,3,5-triazin-2-yl]amino}benzyl)(methyl)oxido-λ^6-sulfanylidene]cyanamide] | 
2.8 µM | 0.091 µM | 787 µg/mL (≈ 2030 µM) |  |  |  |  |  |  | COc1ccc(F)cc1-c1ncnc(Nc2cccc(CS(C)(=N)=O)c2)n1 (single isomer, unassigned) [Example 22, 4-(5-Fluoro-2-methoxyphenyl)-N-{3-[(S-methylsulfonimidoyl)methyl]phenyl}-1,3,5-triazin-2-amine] | 
1.5 µM | 0.029 µM | 819 µg/mL (≈ 2060 µM) | 1.1 µM |  |  |  |  |  | CS(=N)(=O)Cc1cccc(Nc2ncnc(-c3cccc4c3OCCO4)n2)c1 (single isomer, unassigned) [Example 39, 4-(2,3-Dihydro-1,4-benzodioxin-5-yl)-N-{3-[(S-methylsulfonimidoyl)methyl]phenyl}-1,3,5-triazin-2-amine] | 
0.85 µM |  | 120 µg/mL (≈ 296 µM) |  |  |  |  |  |  | COc1cc(F)ccc1-c1ncnc(Nc2cc(F)cc(CS(C)(=N)=O)c2)n1 (single isomer, unassigned) [Example 54, 4-(4-Fluoro-2-methoxyphenyl)-N-{3-fluoro-5-[(S-methylsulfonimidoyl)methyl]phenyl}-1,3,5-triazin-2-amine] | 
0.18 µM | 0.006 µM |  | 0.15 µM | 0.23 µM | 0.17 µM | 0.12 µM | 0.079 µM | 0.13 µM | COc1cc(F)ccc1-c1ncnc(Nc2cc(F)cc(CS(C)(=O)=NC#N)c2)n1 (racemic) [Example 70, (rac)-[(3-Fluoro-5-{[4-(4-fluoro-2-methoxyphenyl)-1,3,5-triazin-2-yl]amino}benzyl)(methyl)oxido-λ^6-sulfanylidene]cyanamide] | 
0.27 µM | 0.002 µM |  | 0.11 µM | 0.18 µM | 0.21 µM | 0.64 µM | 0.18 µM | 0.22 µM | CS(=N)(=O)Cc1cccc(Nc2ncnc(-c3ccc(F)cc3OCc3ccnc(F)c3)n2)c1 (single isomer, unassigned) [Example 83, 4-{4-Fluoro-2-[(2-fluoropyridin-4-yl)methoxy]phenyl}-N-{3-[(S-methylsulfonimidoyl)methyl]phenyl}-1,3,5-triazin-2-amine] | 
0.24 µM | 0.005 µM |  |  |  |  |  |  |  | COc1cc(F)ccc1-c1ncnc(Nc2cc(F)cc(CS(C)(=O)=NC#N)c2)n1 (single isomer, unassigned) [Example 72, [(3-Fluoro-5-{[4-(4-fluoro-2-methoxyphenyl)-1,3,5-triazin-2-yl]amino}benzyl)(methyl)oxido-λ^6-sulfanylidene]cyanamide] | IC50 [2]: 0.071 µM; IC50 ([3]; NCI-H460 cells): 0.16 µM; IC50 ([4]; Caco-2 cells): 0.19 µM; IC50 [5]: 0.12 µM; IC50 ([6]; DU145 cells): 0.11 µM; IC50 ([7]; B16F10 cells): 0.16 µM
1.2 µM | 0.013 µM |  | 0.51 µM | 0.72 µM | 0.76 µM | 0.76 µM | 0.54 µM | 0.96 µM | CCOC(=O)N=S(C)(=O)Cc1cccc(Nc2ncnc(-c3cccc4c3OCCC4)n2)c1 (racemic) [Example 29, (rac)-Ethyl [(3-{[4-(3,4-dihydro-2H-chromen-8-yl)-1,3,5-triazin-2-yl]amino}benzyl)(methyl)oxido-λ^6-sulfanylidene]carbamate] | 
0.59 µM | 0.003 µM |  | 0.31 µM | 0.33 µM | 0.39 µM | 0.34 µM |  | 0.34 µM | CC#CCOc1cc(F)ccc1-c1ncnc(Nc2cccc(CS(C)(=N)=O)c2)n1 (single isomer, unassigned) [Example 74, 4-[2-(But-2-yn-1-yloxy)-4-fluorophenyl]-N-{3-[(S-methylsulfonimidoyl)methyl]phenyl}-1,3,5-triazin-2-amine] | IC50 ([6]; DU145 cells): 0.36 µM
0.36 µM | 0.004 µM |  | 0.23 µM | 0.45 µM | 0.5 µM | 0.34 µM | 0.28 µM | 0.3 µM | CCS(=O)(Cc1cccc(Nc2ncnc(-c3ccc(F)cc3OC)n2)c1)=NC#N (racemic) [Example 107, (rac)-[Ethyl(3-{[4-(4-fluoro-2-methoxyphenyl)-1,3,5-triazin-2-yl]amino}benzyl)oxido-λ^6-sulfanylidene]cyanamide] | 
0.28 µM | 0.004 µM |  | 0.47 µM | 0.37 µM | 0.52 µM | 0.45 µM | 0.42 µM | 0.47 µM | CS(=N)(=O)Cc1cccc(Nc2ncnc(-c3ccc(F)cc3OCc3cc(F)cc(C(F)(F)F)c3)n2)c1 (racemic) [Example 89, (rac)-4-(4-Fluoro-2-{[3-fluoro-5-(trifluoromethyl)benzyl]oxy}phenyl)-N-{3-[(S-methylsulfonimidoyl)methyl]phenyl}-1,3,5-triazin-2-amine] | 
0.63 µM | 0.013 µM |  | 0.33 µM | 0.41 µM | 0.42 µM | 0.4 µM | 0.28 µM | 0.32 µM | COc1cc(F)ccc1-c1ncnc(Nc2cccc(CS(C)(=O)=NC#N)c2)n1 (racemic) [Example 48, (rac)-[(3-{[4-(4-fluoro-2-methoxyphenyl)-1,3,5-triazin-2-yl]amino}benzyl)(methyl)oxido-λ^6-sulfanylidene]cyanamide] | 
0.67 µM |  | 1000 µg/mL (≈ 2530 µM) |  |  |  |  |  |  | CS(=N)(=O)Cc1cccc(Nc2ncnc(-c3cccc4c3OCCC4)n2)c1 (single isomer, unassigned) [Example 31, 4-(3,4-Dihydro-2H-chromen-8-yl)-N-{3-[(S-methylsulfonimidoyl)methyl]phenyl}-1,3,5-triazin-2-amine] | 
